Results as given in patent US10934298B2, “Substituted pyrazolo[1,5-a]pyrimidines for the treatment of medical disorders” (BIAL—BioTech Investments, Inc., priority 2016, dated 2021).

Target: T1, glucocerebrosidase (Gcase) (Homo sapiens, UniProt P04062)
T1 construct: micellar solution containing 10 nM GCase and 100 nM saposin C
T1 sequence (P04062 40-536): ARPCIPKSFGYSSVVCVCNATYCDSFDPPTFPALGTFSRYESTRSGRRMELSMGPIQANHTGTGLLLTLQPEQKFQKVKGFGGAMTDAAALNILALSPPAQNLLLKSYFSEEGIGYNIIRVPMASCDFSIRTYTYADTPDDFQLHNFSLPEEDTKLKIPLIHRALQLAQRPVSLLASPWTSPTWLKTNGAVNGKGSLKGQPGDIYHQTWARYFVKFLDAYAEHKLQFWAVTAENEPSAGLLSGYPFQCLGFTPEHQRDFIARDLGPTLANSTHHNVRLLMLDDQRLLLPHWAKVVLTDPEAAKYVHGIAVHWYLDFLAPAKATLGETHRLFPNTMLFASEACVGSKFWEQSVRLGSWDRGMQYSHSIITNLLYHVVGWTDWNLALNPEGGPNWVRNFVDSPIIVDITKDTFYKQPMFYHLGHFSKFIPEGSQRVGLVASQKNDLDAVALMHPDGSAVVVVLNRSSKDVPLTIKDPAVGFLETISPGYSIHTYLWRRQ
Experiment: Glucocerebrosidase (Gcase) activation assay with 4-methylumbelliferyl-beta-D-glucopyranoside substrate, saposin C and phosphatidylserine/triton micelles, fluorescence readout
Format: biochemical
Experimental: The ability of exemplary compounds to activate glucocerebrosidase (Gcase) was measured.
A 484 μL aliquot of a 1.0 mg/mL solution of phosphatidylserine (PS) (Sigma P7769) in chloroform was evaporated under a stream of nitrogen for 1 hour. The lipid film was dissolved over 4 minutes of vigorous vortexing in 40 mL of 176 mM K2HPO4/50 mM citric acid (pH 4.7) containing 7.5 μL of triton X-100, resulting in a mixed micellar preparation with a composition of 0.32 mM triton and 0.37 mol % PS. 4-Methylumbelliferyl-beta-D-glucopyranoside (ACROS-337025000) was dissolved in the micellar solution to a final concentration of 2 mM for use as the reaction substrate.
Test compounds were diluted to the desired concentrations with dimethylsulfoxide (DMSO) from 10 mM stocks, and 0.41 μL of the DMSO compound mixture was added to 100 μL of micellar solution containing 10 nM GCase and 100 nM saposin C (Enzo ALX-201-262-C050). Pre-incubation was allowed to occur for 30 minutes at room temperature, after which the reaction was initiated by combining 25 μL of substrate solution with 25 μL of compound/GCase/saposin mixture. The reaction proceeded for 15 minutes at room temperature and was stopped by adding 150 μL of 1M glycine, pH 12.5. The endpoint of the reaction was monitored by measuring fluorescence intensity (excitation: 365 nm; emission: 440 nm) on a SpectraMax i3 instrument (Molecular Devices). Test compounds were screened at 1.0 and 0.1 μM final concentration, and subsequent 8-point dose response curves were obtained using 3-fold dilutions from a maximum final concentration of 5 μM.

Row | Percent Gcase Activation, 0.1 μM Test Compound (test compound at 0.1 μM) | Percent Gcase Activation, 1 μM Test Compound (test compound at 1.0 μM) | Percent Gcase Activation, 0.1 μM Test Compound (0.1 μM test compound) | Percent Gcase Activation, 1 μM Test Compound (1 μM test compound) | SMILES | also measured
1 | – | – | *** (greater than 20% Gcase activation) | +++ (Gcase activation greater than 60%) | Cc1cc(-c2cc(C)n3ncc(C(=O)N[C@@H](C)C(F)(F)F)c3n2)co1 [III-339] | –
2 | – | – | *** (greater than 20% Gcase activation) | +++ (Gcase activation greater than 60%) | Cc1cc(-c2cnccc2C(F)(F)F)nc2c(C(=O)N[C@@H](C3CC3)C(F)(F)F)cnn12 [III-354] | –
3 | – | – | *** (greater than 20% Gcase activation) | +++ (Gcase activation greater than 60%) | Cc1cc(-c2ccc3ncn(C)c3c2)nc2c(C(=O)N[C@@H](C3CC3)C(F)(F)F)cnn12 [III-306] | –
4 | *** (greater than 20% Gcase activation) | +++ (Gcase activation greater than 60%) | – | – | Cc1cncc(-c2cc(C)n3ncc(C(=O)N[C@H](C4CC4)C(F)(F)F)c3n2)c1 [III-276] | –
5 | – | – | *** (greater than 20% Gcase activation) | +++ (Gcase activation greater than 60%) | Cc1cc(-c2cc(F)c3c(c2)OCO3)nc2c(C(=O)NC(C)C(F)(F)F)cnn12 (stereo not drawn) [III-294] | –
6 | – | – | *** (greater than 20% Gcase activation) | +++ (Gcase activation greater than 60%) | Cc1cc(-c2cncc(C#N)c2)nc2c(C(=O)N[C@H](C3CC3)C(F)(F)F)cnn12 [III-363] | –
7 | – | – | *** (greater than 20% Gcase activation) | +++ (Gcase activation greater than 60%) | COc1cccc(-c2cc(C)n3ncc(C(=O)NC(C)(C)C(F)(F)F)c3n2)c1 [III-405] | –
8 | – | – | *** (greater than 20% Gcase activation) | +++ (Gcase activation greater than 60%) | Cc1cc(-c2cccc(-c3ncccn3)c2)nc2c(C(=O)NC(C3CC3)C(F)(F)F)cnn12 (stereo not drawn) [III-417] | –
9 | – | – | *** (greater than 20% Gcase activation) | +++ (Gcase activation greater than 60%) | Cc1cc(C2=CC(C)(C)CCO2)nc2c(C(=O)NC(C3CC3)C(F)(F)F)cnn12 (stereo not drawn) [III-322] | –
10 | – | – | *** (greater than 20% Gcase activation) | +++ (Gcase activation greater than 60%) | Cc1cc(-c2cc(F)c3ocnc3c2)nc2c(C(=O)N[C@H](C)C(F)(F)F)cnn12 [III-296] | –

Second part, the compound before the results:

Row | SMILES | Percent Gcase Activation, 0.1 μM Test Compound (test compound at 0.1 μM) | Percent Gcase Activation, 1 μM Test Compound (test compound at 1.0 μM) | Percent Gcase Activation, 0.1 μM Test Compound (0.1 μM test compound) | Percent Gcase Activation, 1 μM Test Compound (1 μM test compound) | also measured
11 | Cc1cc(-c2cncc(Cl)c2)nc2c(C(=O)N[C@H](C3CC3)C(F)(F)F)cnn12 [III-120] | *** (greater than 20% Gcase activation) | +++ (Gcase activation greater than 60%) | – | – | –
12 | C#CC(C)(C)NC(=O)c1cnn2c(C)cc(-c3cccc(Cl)n3)nc12 [III-63] | – | – | – | – | Percent Gcase Activation, 0.1 μM Test Compound (0.1 μM test compound, Table 3A): ** (Gcase activation in the range of 10% up to 20%); Percent Gcase Activation, 1 μM Test Compound (1 μM test compound, Table 3A): ++ (Gcase activation in the range of 30% up to 60%)
13 | COc1cccc(-c2cc(C)n3ncc(C(=O)NC(C)C(F)(F)F)c3n2)c1 (stereo not drawn) [III-55] | – | – | – | – | Percent Gcase Activation, 0.1 μM Test Compound (0.1 μM test compound, Table 3A): *** (greater than 20% Gcase activation); Percent Gcase Activation, 1 μM Test Compound (1 μM test compound, Table 3A): +++ (Gcase activation greater than 60%)
14 | Cc1cc(-c2ccc(F)c(C(N)=O)c2)nc2c(C(=O)NC(C3CC3)C(F)(F)F)cnn12 (stereo not drawn) [III-162] | *** (greater than 20% Gcase activation) | +++ (Gcase activation greater than 60%) | – | – | –
15 | Cc1cc(-c2cccnc2Cl)nc2c(C(=O)NC(C3CC3)C(F)(F)F)cnn12 (stereo not drawn) [III-123] | ** (Gcase activation in the range of 10% up to 20%) | +++ (Gcase activation greater than 60%) | – | – | –
16 | Cc1cc(-c2cnccc2F)nc2c(C(=O)NC(C)C(F)(F)F)cnn12 (stereo not drawn) [III-199] | * (less than 10% Gcase activation) | ++ (Gcase activation in the range of 30% up to 60%) | – | – | –
17 | Cc1cc(-c2ccc3scnc3c2)nc2c(C(=O)N[C@@H](C)C3CC3)cnn12 [III-192] | *** (greater than 20% Gcase activation) | +++ (Gcase activation greater than 60%) | – | – | –
18 | Cc1cc(-c2nc3ccccc3[nH]2)nc2c(C(=O)NC(C3CC3)C(F)(F)F)cnn12 (stereo not drawn) [III-311] | – | – | * (less than 10% Gcase activation) | ++ (Gcase activation in the range of 30% up to 60%) | –
19 | Cc1cc(-c2ccc3ocnc3c2)nc2c(C(=O)NC(C3CC3)C(F)(F)F)cnn12 (stereo not drawn) [III-108] | *** (greater than 20% Gcase activation) | +++ (Gcase activation greater than 60%) | – | – | –
20 | Cc1cc(N2CCCN(C(C)C)C2=O)nc2c(C(=O)NC(C)(C)C)cnn12 [III-258] | * (less than 10% Gcase activation) | + (less than 30% Gcase activation) | – | – | –
21 | Cc1cc(N2CCN(CC(F)(F)F)C2=O)nc2c(C(=O)NC(C3CC3)C(F)(F)F)cnn12 (stereo not drawn) [III-233] | ** (Gcase activation in the range of 10% up to 20%) | +++ (Gcase activation greater than 60%) | – | – | –
22 | CCc1cc(-c2ccccn2)n2ncc(C(=O)NC(C)C(F)(F)F)c2n1 (stereo not drawn) [III-51] | – | – | – | – | Percent Gcase Activation, 0.1 μM Test Compound (0.1 μM test compound, Table 3A): * (less than 10% Gcase activation); Percent Gcase Activation, 1 μM Test Compound (1 μM test compound, Table 3A): + (less than 30% Gcase activation)
23 | Cc1cc(-c2cccc(F)n2)nc2c(C(=O)N[C@H](C)C3CC3)cnn12 [III-135] | ** (Gcase activation in the range of 10% up to 20%) | +++ (Gcase activation greater than 60%) | – | – | –
24 | Cc1cc(-c2cccc3c2OCO3)nc2c(C(=O)N[C@@H](C)C3CC3)cnn12 [III-182] | *** (greater than 20% Gcase activation) | ++ (Gcase activation in the range of 30% up to 60%) | – | – | –
25 | Cc1oc(C#N)cc1-c1cc(C)n2ncc(C(=O)NC(C3CC3)C(F)(F)F)c2n1 (stereo not drawn) [III-242] | *** (greater than 20% Gcase activation) | +++ (Gcase activation greater than 60%) | – | – | –
26 | Cc1cc(-c2cccc(Cl)n2)nc2c(C(=O)N[C@@H](C)C(F)(F)F)cnn12 [III-236] | *** (greater than 20% Gcase activation) | +++ (Gcase activation greater than 60%) | – | – | –
27 | Cc1cc(-c2ccc3ocnc3c2)nc2c(C(=O)N[C@@H](C)C(F)(F)F)cnn12 [III-168] | *** (greater than 20% Gcase activation) | +++ (Gcase activation greater than 60%) | – | – | –
28 | COCOc1cccc(-c2cc(C)n3ncc(C(=O)N[C@@H](C4CC4)C(F)(F)F)c3n2)n1 [III-384] | – | – | ** (Gcase activation in the range of 10% up to 20%) | +++ (Gcase activation greater than 60%) | –
29 | Cc1cc(Cl)n2ncc(C(=O)NC(C)(C)C3CC3)c2n1 [III-14] | – | – | – | – | Percent Gcase Activation, 0.1 μM Test Compound (0.1 μM test compound, Table 3A): ** (Gcase activation in the range of 10% up to 20%); Percent Gcase Activation, 1 μM Test Compound (1 μM test compound, Table 3A): ++ (Gcase activation in the range of 30% up to 60%)
30 | Cc1nc(-c2cc(C)n3ncc(C(=O)NC(C4CC4)C(F)(F)F)c3n2)co1 (stereo not drawn) [III-249] | ** (Gcase activation in the range of 10% up to 20%) | +++ (Gcase activation greater than 60%) | – | – | –
31 | Cc1cc(N2CCC(F)(F)CC2)nc2c(C(=O)NC(C)C3CC3)cnn12 (stereo not drawn) [III-60] | – | – | – | – | Percent Gcase Activation, 0.1 μM Test Compound (0.1 μM test compound, Table 3A): * (less than 10% Gcase activation); Percent Gcase Activation, 1 μM Test Compound (1 μM test compound, Table 3A): ++ (Gcase activation in the range of 30% up to 60%)
32 | Cc1cc(-c2cncc(Cl)c2)nc2c(C(=O)NC(C)C(F)(F)F)cnn12 (stereo not drawn) [III-200] | *** (greater than 20% Gcase activation) | +++ (Gcase activation greater than 60%) | – | – | –
33 | C#CC(C)(C)NC(=O)c1cnn2c(C)cc(-c3cccc(F)c3)nc12 [III-75] | – | – | – | – | Percent Gcase Activation, 0.1 μM Test Compound (0.1 μM test compound, Table 3A): *** (greater than 20% Gcase activation); Percent Gcase Activation, 1 μM Test Compound (1 μM test compound, Table 3A): +++ (Gcase activation greater than 60%)
